Experimental data published in US20030130308A1, “Drugs for spinal anesthesia” (priority 2001, published 2003).
Entries after “also recorded” stand apart in the source; their conditions may differ. Structures can show the parent of a compound that is named as a salt.

Columns and labels:
rats [1] = assay: Withdrawal response to pinch with forceps at the hindpaw after intrathecal injection; assay type: in vivo; conditions: rat
Experimental: (§1) Rats were tested before 15 minutes through 240 minutes after intrathecal injection of 5 nmoles (in 10 μl) of 6-[2-(1(2)H-tetrazole-5-yl)ethyl]decahydroisoquinolone-3-carboxylic acid. Sensory function was tested at the hindpaw using withdrawal response to pinprick and withdrawal to pinch with a sharp forceps. Motor performance (ambulation, the placing reflex and Rotarod time), blood pressure and heart rate was also evaluated. Some tests were repeated the next day. Responses after 6-[2-(1(2)H-tetrazole-5-yl)ethyl]decahydroisoquinolone-3-carboxylic acid were compared to injection of 40 μl of bupivacaine, 0.75%. Pinprick responses at the forepaw, chest, abdomen, hindleg and hindpaw were also examined after intrathecal 6-[2-(1(2)H-tetrazole-5-yl)ethyl]decahydroisoquinolone-3-carboxylic acid.
(§2) Rats were anesthetized with halothane. The lumbar region was shaved, prepared with povidone-iodine, made kyphotic and incised 2 to 3 cm longitudinally in the midline at the level of the iliac crests. The space between the 5th and 6th lumbar vertebrae was punctured with 23G hypodermic needle and a 32G PU catheter (10 cm length, OD 0.0107 inches and ID 0.005 inches) reinforced with a Teflon coated stainless steel stylet (0.003 inches) was advanced through the needle cranially. The needle and the stylet were removed and the catheter withdrawn so that 6.5-7 cm extended outside of the lumbar masculature. The catheter was fixed to the fascia, sutured, inserted into an 8 cm length of PE-10 tubing and secured with glue covered with epoxy. The catheter was tunneled under the skin to the cervical region, flushed with saline and sealed with a cautery pen. The dead space of the catheter was 4.5 to 5 μl. The skin was closed and the rat was allowed to recover from anesthesia for 2-3 days.
First, the withdrawal response to pinprick was tested on each hindpaw. A 5 mm long tip of a safety pin attached to a von Frey filament (520 mN) was applied once to the plantar aspect of each hindpaw. Either a withdrawal response or a reaction occurred (1=positive response) or no withdrawal (0=no response). The sum of the scores (0, 1 or 2) for each rat was recorded. If no response or reaction was elicited by pinprick, a serrated dissecting forceps was used to pinch the skin of the plantar region for 2-3 sec. Again, withdrawal or reaction was considered a positive response (score=1) and the absence of both a negative test (score=0). […] Because the response to pinch was quite vigorous and rats were subjected to repeated tests in a single day, only rats unresponsive to pinprick were tested for pinch. If pinprick evoked a response, pinch was designated as positive also. The sum of the scores after pinch (0, 1 or 2) was recorded.
(§3) The dose and volume of drugs injected intrathecally were determined from the dose required to produce hindlimb sensory and motor loss in preliminary experiments. Bupivacaine HCl (0.75% in 8.25% dextrose for spinal injection) was purchased from Abbott Laboratories (Chicago, Ill.). The intrathecal injection volume was 40 μl. The compound was dissolved in 10% dextrose and water. The injection volume was 1 ul. All intrathecal drug injections were followed by a flush of 10 μl preservative-free saline.

rats [2] = assay: Overall sensory and motor blockade of the hindlimbs after intrathecal injection; assay type: in vivo; conditions: rat
Experimental: as §1, §2, §3

rats [3] = assay: Segmental pinprick testing at hindpaw, hindleg, abdomen, chest and forepaw after intrathecal injection; assay type: in vivo; conditions: rat
Experimental: as §1
In a separate group of rats (n=5), the response to pinprick was tested once on the left hindpaw, the left hindleg, the lower abdomen, the chest and the left forepaw in rats injected with intrathecal 6-[2-(1(2)H-tetrazole-5-yl)ethyl]decahydroisoquinolone-3-carboxylic acid. Withdrawal, muscle contraction, or attempted escape reaction to pinprick was considered a positive test whereas their absence was considered a negative response. This test was not blinded.

rats [4] = assay: Withdrawal response to pinprick after infiltration into the left hind paw; assay type: in vivo; conditions: rat
Experimental: Withdrawal response to pinprick were also tested before and after infiltration of (50 nmoles in 100 μl) of 6-[2-(1(2)H-tetrazole-5-yl)ethyl]decahydroisoquinolone-3-carboxylic acid into the left hind paw (n=5). Responses were recorded before injection of 6-[2-(1(2)H-tetrazole-5-yl)ethyl]decahydroisoquinolone-3-carboxylic acid and at 15, 30 and 60 minutes after injection. This test was not blinded.

[5] = local infiltration of the drug in the incision; previously reported by this inventor; cited from earlier work
[6] = bupivacaine 0.75% 40 μl intrathecal

| SMILES | time of full recovery of response to pinch (rats [1]; [6]) | response to pinch vs Pre (rats [1]; bupivacaine 0.75% 40 μl intrathecal, 15 minutes after injection) | sensory and motor responses (rats [2]; [6]) | greater inhibition of pinch than bupivacaine (P<0.05) through (rats [1]; 5 nmoles intrathecal vs bupivacaine) | all rats failed to respond to pinch through (P<0.05 vs Pre) (rats [1]; 5 nmoles intrathecal, from 15 minutes) | recovery of pinch response the next day (rats [1]; 5 nmoles intrathecal, next day) | segmental blockade of the response to pinprick (rats [3]; 5 nmoles intrathecal) | evidence of sensory block of the forelimb (rats [3]; intrathecal, n=5, not blinded) | sensation to pinprick blocked below the chest in all rats through (rats [3]; intrathecal, n=5, not blinded) | sensation to pinprick blocked in the hindlimb through (rats [3]; intrathecal, n=5, not blinded) | change in withdrawal response to pinprick from baseline (rats [4]; 50 nmoles in 100 μl infiltrated into the hind paw, n=5) | rats withdrawing to pinprick (rats [4]; 50 nmoles in 100 μl into the hind paw, n=5, at 15, 30 and 60 minutes) | effects compared with bupivacaine (rats [2]; 5 nmoles intrathecal vs bupivacaine 0.75% 40 μl) | greater motor deficits than bupivacaine (P<0.05) in all tests of motor function, through (rats [2]; 5 nmoles intrathecal vs bupivacaine, from 30 minutes) | sensory and motor blockade of the hindlimbs (rats [2]; 5 nmoles intrathecal) | sensory and motor responses blocked through (rats [2]; 5 nmoles intrathecal) | recovery of sensory and motor responses the following day (rats [2]; 5 nmoles intrathecal, following day) | effect on pain after incision [5] |
| --- | --- | --- | --- | --- | --- | --- | --- | --- | --- | --- | --- | --- | --- | --- | --- | --- | --- | --- |
| CCCCN1CCCCC1C(=O)Nc1c(C)cccc1C (stereo not drawn) [Bupivacaine, Bupivacaine HCl] | 30 min | reduced | decreased | – | – | – | – | – | – | – | – | – | – | – | – | – | – | – |
| O=C(O)C1CC2CC(CCc3nnn[nH]3)CCC2CN1 (stereo not drawn) [LY293558, 6-[2-(1(2)H-tetrazole-5-yl)ethyl]decahydroisoquinolone-3-carboxylic acid] | – | – | – | 4 h | 90 min | recovered fully | present | in only one test at 15 minutes | 90 min | 120 min | no change; also recorded: did not affect | All five rats withdrew | more pronounced and sustained than bupivacaine; also recorded: more pronounced and prolonged | 3 h | reversible, sustained sensory and motor blockade | 180 min | complete recovery | no effect |
